In patent US20240010684A1, “MASP INHIBITORY COMPOUNDS AND USES THEREOF” (BAYER AKTIENGESELLSCHAFT, priority 2020, published 2024) one finds IC50 data, which are given here for eleven molecules.

One assay deals with human MASP1 (Homo sapiens (Human), UniProt P48740). Kind of assay: Biochemical human MASP1 assay (FRET substrate). To be noted: Average IC50; recombinant human MASP1; read-out: human MASP1 IC50. The method in brief: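 IC50 derived from % inhibition versus compound concentration, with fluorescence increase read at 320/420 nm after 60-120 min at 32 C. Enzyme: HEK293-secreted, His-tagged human MASP1 fragment 297-699 at 20 nM in HEPES pH 8,0 buffer with NaCl, CHAPS, glutathione; substrate ABZ-peptide-Lys(Dnp)-NH2 added as 20 μM solution.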

A further assay has as its target human MASP2 (Homo sapiens (Human), UniProt O00187). Kind of assay: Biochemical human MASP2 assay (FRET substrate). To be noted: Average IC50; recombinant human MASP2; read-out: human MASP2 IC50. The method in brief: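 IC50 came from % inhibition across compound concentrations, with fluorescence (ex 340 nm, em 490 nm) read after 60-120 min at 32 C. Substrate was a DABCYL FRET peptide, added as a 60 μM solution, cleaved by HEK293-expressed, Ni-NTA-purified mature recombinant human MASP2.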

Assay [1] has as its system Human C3-DEPOSITION SERUM. Kind of assay: C3 deposition assay, human serum on mannan-coated plates. Type of assay: biochemical. The conditions noted are these: Average IC50, read-out: Human C3-DEPOSITION SERUM IC50. The protocol: 3. C3 Deposition Assay (Human, Rat, Mouse, Dog, Pig))
The C3 deposition assay was conducted essentially as described (reference). Multiwell plates (Greiner-Nunc 384 Maxi Sorp #464718) were coated over night with Mannan from Saccharomyces cerevisiae (Sigma M7504, 10 μg/mL in 0.05 M carbonate-bicarbonate buffer, pH 9.6) at 4° C. Wells were washed three times with TBS and subsequently incubated for 2 hours with 50 μL of 1% bovine serum albumin (BSA) in Tris-buffered saline (TBS) at 37° C. in order to block non-specific binding. After this step and each of the following incubation steps wells were washed three times with C3 wash buffer (TBS; 0.05% Tween 20; 5 mM CaCl2). […] When appropriately developed the color reaction was stopped by addition of 25 μL of stop solution (Sigma S5814) and quantified on a photometer by measuring absorption at a wavelength of 450 nm. Antibodies were diluted in C3 wash buffer supplemented with 0.5% BSA.

Where a SMILES comes first, the peptide text is derived from it. Bridges are numbered along the chain shown (N, C = ends). Triazole bridges read from a SMILES are 1,4-linked. [ ]: non-standard residue; d: D form. Oic = O=C(O)[C@@H]1C[C@@H]2CCCC[C@@H]2N1; Dap(N3) = [N-]=[N+]=NC[C@H](N)C(=O)O; tBuAla = CC(C)(C)C[C@H](N)C(=O)O; Pen = CC(C)(S)[C@H](N)C(=O)O; NMeC = CN[C@@H](CS)C(=O)O; Pra = C#CC[C@H](N)C(=O)O; Dap = NC[C@H](N)C(=O)O; Ahx = NCCCCCC(=O)O

Sequence of human MASP1 (P48740 other isoform, or with tags, fused parts or gaps): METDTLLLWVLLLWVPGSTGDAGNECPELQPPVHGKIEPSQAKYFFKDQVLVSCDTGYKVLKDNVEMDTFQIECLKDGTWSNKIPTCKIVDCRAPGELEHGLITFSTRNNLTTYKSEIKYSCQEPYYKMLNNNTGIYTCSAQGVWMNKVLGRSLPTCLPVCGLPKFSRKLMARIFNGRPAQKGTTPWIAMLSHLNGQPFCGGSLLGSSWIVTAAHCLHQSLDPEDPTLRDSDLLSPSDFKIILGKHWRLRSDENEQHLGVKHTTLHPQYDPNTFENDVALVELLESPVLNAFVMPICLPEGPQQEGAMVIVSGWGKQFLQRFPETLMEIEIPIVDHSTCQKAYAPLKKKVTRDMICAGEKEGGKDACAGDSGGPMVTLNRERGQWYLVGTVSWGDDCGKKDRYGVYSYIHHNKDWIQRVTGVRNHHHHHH
Sequence of human MASP2 (O00187 other isoform, or with tags, fused parts or gaps): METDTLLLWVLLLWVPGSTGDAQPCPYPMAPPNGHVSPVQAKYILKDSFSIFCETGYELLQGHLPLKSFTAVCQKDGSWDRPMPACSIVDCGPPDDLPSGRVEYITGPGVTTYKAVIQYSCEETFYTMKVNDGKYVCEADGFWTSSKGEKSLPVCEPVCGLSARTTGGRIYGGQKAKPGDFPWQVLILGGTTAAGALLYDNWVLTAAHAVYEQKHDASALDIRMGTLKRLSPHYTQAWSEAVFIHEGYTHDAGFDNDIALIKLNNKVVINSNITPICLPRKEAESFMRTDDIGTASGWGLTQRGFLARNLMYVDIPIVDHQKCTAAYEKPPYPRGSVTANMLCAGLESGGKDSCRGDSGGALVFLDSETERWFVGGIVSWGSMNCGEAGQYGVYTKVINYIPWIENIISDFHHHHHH

As a reminder, the IC50 is the midpoint of a concentration-inhibition curve. Consider `CC[C@H](C)[C@@H]1NC(=O)CNC(=O)[C@H](CN)NC(=O)[C@H](CN)NC(=O)[C@H](CC(=O)O)NC(=O)[C@@H]2CCCN2C(=O)[C@H]([C@@H](C)CC)NC(=O)[C@@H]2CSSC[C@H](NC1=O)C(=O)N[C@@H](CO)C(=O)N[C@@H](CCCNC(=N)N)C(=O)N[C@@H](CO)C(=O)N[C@@H](CC(C)C)C(=O)N1CCC[C@H]1C(=O)N1CCC[C@H]1C(=O)N[C@@H]([C@@H](C)CC)C(=O)N2` [Example 23] (cyclo(CIPD[Dap][Dap]GICSRSLPPI); disulfide 1-9), for which the concentration for half-maximal inhibition (IC50) is 180 nM on human MASP1, 20 nM on human MASP2 and 121 nM in assay [1].
The corresponding values for `CC[C@H](C)[C@@H]1NC(=O)CNC(=O)CNC(=O)[C@H](C)NC(=O)[C@H](CC(=O)O)NC(=O)[C@@H]2CCCN2C(=O)[C@H]([C@@H](C)CC)NC(=O)[C@H]2NC(=O)[C@H]([C@@H](C)CC)NC(=O)[C@@H]3CCCN3C(=O)[C@@H]3CCCN3C(=O)[C@H](CC(C)(C)C)NC(=O)[C@H](CO)NC(=O)[C@H](CCCNC(=N)N)NC(=O)[C@H](CO)NC(=O)[C@H](CSSC2(C)C)NC1=O` [Example 29] (cyclo(AGGICSRS[tBuAla]PPI[Pen]IPD); disulfide 5-13) are 8.6 nM, 68 nM and 84.6 nM.
The corresponding values for `CC[C@H](C)[C@@H]1NC(=O)[C@H](C)NC(=O)CCCCCNC(=O)[C@H](CC(=O)O)NC(=O)[C@@H]2CCCN2C(=O)[C@H]([C@@H](C)CC)NC(=O)[C@@H]2CSSC[C@H](NC1=O)C(=O)N[C@@H](CO)C(=O)N[C@@H](CCCNC(=N)N)C(=O)N[C@@H](CO)C(=O)N[C@@H](CC(C)(C)C)C(=O)N1CCC[C@H]1C(=O)N1CCC[C@H]1C(=O)N[C@@H]([C@@H](C)CC)C(=O)N2C` [Example 32] (cyclo(AICSRS[tBuAla]PPI[NMeC]IPD[Ahx]); disulfide 3-11) are 22 nM, 63.5 nM and 121 nM.
The corresponding values for `CC[C@H](C)[C@@H]1NC(=O)CCCNC(=O)[C@H](CC(=O)O)NC(=O)[C@@H]2CCCN2C(=O)[C@H]([C@@H](C)CC)NC(=O)[C@@H]2CSSC[C@H](NC1=O)C(=O)N[C@@H](CO)C(=O)N[C@@H](CCCNC(=N)N)C(=O)N[C@@H](CO)C(=O)N[C@@H](CC(C)(C)C)C(=O)N1CCC[C@H]1C(=O)N1CCC[C@H]1C(=O)N[C@@H]([C@@H](C)CC)C(=O)N2C` [Example 36] are 8.7 nM, 110 nM and 8.68 nM.
As for `CC[C@H](C)[C@@H]1NC(=O)[C@H](C)NC(=O)CNC(=O)[C@@H](N)Cn2cc(nn2)C[C@@H](C(N)=O)NC(=O)[C@@H]2CCCN2C(=O)[C@H]([C@@H](C)CC)NC(=O)[C@@H]2CSSC[C@H](NC1=O)C(=O)N[C@@H](CO)C(=O)N[C@@H](CCCNC(=N)N)C(=O)N[C@@H](CO)C(=O)N[C@@H](CC(C)(C)C)C(=O)N1CCC[C@H]1C(=O)N1CCC[C@H]1C(=O)N[C@@H]([C@@H](C)CC)C(=O)N2` [Example 81] (H-[Dap(N3)]GAICSRS[tBuAla]PPICIP[Pra]-NH2; triazole 1-16; disulfide 5-13), the figures for the half-inhibitory concentration (IC50) at human MASP1 and on human MASP2 were 18 nM and 230 nM, respectively.
The matching figures for `CC[C@H](C)[C@@H]1NC(=O)[C@H](C)NC(=O)CNC(=O)CCCCCNC(=O)CC[C@@H](C(N)=O)NC(=O)[C@@H]2CCCN2C(=O)[C@H]([C@@H](C)CC)NC(=O)[C@H]2NC(=O)[C@H]([C@@H](C)CC)NC(=O)[C@@H]3C[C@@H]4CCCC[C@@H]4N3C(=O)[C@@H]3CCCN3C(=O)[C@H](CC(C)C)NC(=O)[C@H](CO)NC(=O)[C@H](CCCNC(=N)N)NC(=O)[C@H](CO)NC(=O)[C@H](CSSC2(C)C)NC1=O` [Example 82] ([Ahx]GAICSRSLP[Oic]I[Pen]IPE-NH2; disulfide 5-13; lactam N-16): 69 nM and 700 nM.
The corresponding values for `CC[C@H](C)[C@@H]1NC(=O)CNC(=O)CCCCCNC(=O)CC[C@@H](C(N)=O)NC(=O)[C@@H]2CCCN2C(=O)[C@H]([C@@H](C)CC)NC(=O)[C@H]2NC(=O)[C@H]([C@@H](C)CC)NC(=O)[C@@H]3C[C@@H]4CCCC[C@@H]4N3C(=O)[C@@H]3CCCN3C(=O)[C@H](CC(C)C)NC(=O)[C@H](CO)NC(=O)[C@H](CCCNC(=N)N)NC(=O)[C@H](CO)NC(=O)[C@H](CSSC2(C)C)NC1=O` [Example 83] ([Ahx]GICSRSLP[Oic]I[Pen]IPE-NH2; disulfide 4-12; lactam N-15) are 18 nM and 91 nM.
The matching figures for `CC[C@H](C)[C@@H]1NC(=O)[C@@H](C)NC(=O)CNC(=O)CCCCCNC(=O)CC[C@@H](C(N)=O)NC(=O)[C@@H]2CCCN2C(=O)[C@H]([C@@H](C)CC)NC(=O)[C@H]2NC(=O)[C@H]([C@@H](C)CC)NC(=O)[C@@H]3C[C@@H]4CCCC[C@@H]4N3C(=O)[C@@H]3CCCN3C(=O)[C@H](CC(C)C)NC(=O)[C@H](CO)NC(=O)[C@H](CCCNC(=N)N)NC(=O)[C@H](CO)NC(=O)[C@H](CSSC2(C)C)NC1=O` [Example 84] ([Ahx]G[dA]ICSRSLP[Oic]I[Pen]IPE-NH2; disulfide 5-13; lactam N-16): 15 nM and 87 nM.
With `CC[C@H](C)[C@@H]1NC(=O)CNC(=O)[C@@H](N)CCC(=O)NCCCC[C@@H](C(N)=O)NC(=O)[C@@H]2CCCN2C(=O)[C@H]([C@@H](C)CC)NC(=O)[C@H]2NC(=O)[C@H]([C@@H](C)CC)NC(=O)[C@@H]3C[C@@H]4CCCC[C@@H]4N3C(=O)[C@@H]3CCCN3C(=O)[C@H](CC(C)C)NC(=O)[C@H](CO)NC(=O)[C@H](CCCNC(=N)N)NC(=O)[C@H](CO)NC(=O)[C@H](CSSC2(C)C)NC1=O` [Example 90] (H-EGICSRSLP[Oic]I[Pen]IPK-NH2; lactam 1-15; disulfide 4-12), the IC50 stood at 9.8 nM on human MASP1 and 110 nM on human MASP2.
For `CC[C@H](C)[C@@H]1NC(=O)CNC(=O)[C@@H](N)CCC(=O)NCCCC[C@@H](C(N)=O)NC(=O)[C@H](CC(=O)O)NC(=O)[C@@H]2CCCN2C(=O)[C@H]([C@@H](C)CC)NC(=O)[C@H]2NC(=O)[C@H]([C@@H](C)CC)NC(=O)[C@@H]3C[C@@H]4CCCC[C@@H]4N3C(=O)[C@@H]3CCCN3C(=O)[C@H](CC(C)C)NC(=O)[C@H](CO)NC(=O)[C@H](CCCNC(=N)N)NC(=O)[C@H](CO)NC(=O)[C@H](CSSC2(C)C)NC1=O` [Example 91] (H-EGICSRSLP[Oic]I[Pen]IPDK-NH2; lactam 1-16; disulfide 4-12), the values for the IC50 on human MASP1 and on human MASP2 were 29 nM and 71 nM, respectively.
For `CC[C@H](C)[C@@H]1NC(=O)CCCCCNC(=O)[C@H]([C@@H](C)CC)NC(=O)[C@@H]2CSSC[C@H](NC1=O)C(=O)N[C@@H](CO)C(=O)N[C@@H](CCCNC(=N)N)C(=O)N[C@@H](CO)C(=O)N[C@@H](CC(C)C)C(=O)N1CCC[C@H]1C(=O)N1[C@@H](C[C@@H]3CCCC[C@@H]31)C(=O)N[C@@H]([C@@H](C)CC)C(=O)N2` [Example 95, N-{3-[(6S,9S,12S,15S,18R,21S,31S,34R,37S,39aS,40aS,44aS,46aS)-21,31,37-tri[(2S)-butan-2-yl]-9,15-bis(hydroxymethyl)-6-(2-methylpropyl)-5,8,11,14,17,20,23,30,33,36,39,46-dodecaoxohexatetracontahydro-1H,5H-18,34-(methanodithiomethano)pyrrolo[2′,1′:15,16][1,4,7,10,13,16,19,22,25,28,31,34]dodecaazacyclotetracontino[13,12-a]indol-12-yl]propyl}guanidine] (cyclo([Ahx]ICSRSLP[Oic]ICI); disulfide 3-11), the IC50 on human MASP1 stood at 100 nM; at human MASP2, 110 nM.
